The values that follow are results of earlier work, collected in US20150231081A1, “DELAYED RELEASE POSACONAZOLE TABLETS” (CADILA HEALTHCARE LIMITED, priority 2014, published 2015).

Like-named read-outs stand apart in the source and are kept apart here.

For the compound `CC[C@@H]([C@H](C)O)n1ncn(-c2ccc(N3CCN(c4ccc(OC[C@@H]5CO[C@@](Cn6cncn6)(c6ccc(F)cc6F)C5)cc4)CC3)cc2)c1=O` [Posaconazole free base, 4-[4-[4-[4-[[(3R,5R)-5-(2,4-difluorophenyl)tetrahydro-5-(1H-1,2,4-triazol-1-ylmethyl)-3-furanyl]methoxy]phenyl]-1-piperazinyl]phenyl]-2-[(1S,2S)-1-ethyl-2-hydroxypropyl]-2,4-dihydro-3H-1,2,4-triazol-3-one], the solubility entry by setting is: (environments where the pH is about pH 6.4 or more basic) “less than 1 microgram/mL”; (in stomach pH) “approximately 0.8 mg/mL”.
